Measured values published in US9492450B2, “Inhibition of dynamin related protein 1 to promote cell death” (University of Pittsburgh—of the Commonwealth System of …, priority 2011, dated 2016).

Assays:
Format in all cases: cell-based, human
MDA-MB-231 cells [1] = assay: Chromosome and mitotic spindle morphology in mitotic cells; conditions: 7 hours
Experimental: The effect of Drp1 inhibition of chromosome stability was then evaluated. MDA-MB-231 cells that have been engineered to stably express a mitochondrial marker protein pAcGFP-1-mito were treated with mdivi-1 for 7 hours. Mitotic cells were selected for examining the morphology of their chromosomes and mitotic spindles. Chromosomes were visualized by DAPI, and mitotic spindles were visualized by staining cells with Alex-Fluor 555-conjugated anti-β tubulin antibody. The results are shown in FIG. 11; two representative mitotic figures are shown.

MDA-MB-231 cells [2] = assay: Cell cycle analysis by anti-BrdU, anti-phospho-Histone H3 and PI staining; conditions: 20 μM, 20 h
Experimental: (§1) FIG. 22A-E. Mdivi-1 inhibits DNA replication and its combination with cisplatin enhances replication stress leading to efficient G2 phase arrest of the cell cycle. (A) MDA-MB-231 cells were treated with cisplatin alone, mdivi-1 alone or the combination at the indicated concentrations for 4 h. Western blot was then performed to detect the phosphorylation status of key proteins involved in DNA damage response. (B) MDA-MB-231 cells were treated with 20 μM cisplatin alone, 20 μM mdivi-1 alone or the combination for 20 h. The distribution of cell cycle was determined by triple staining of the cells with anti-BrdU, anti-phospho-Histone H3 and PI. (C) Quantification of the distribution of cell cycle analyzed in panel B. (D) The effect of mdivi-1 on the rate of DNA synthesis was analyzed by a histogram, which was generated from the data obtained in panel B, showing the changes of BrdU intensity. (E) Cells were treated as described in B and γ-H2AX was analyzed by western blot.
Cells were treated with 20 μM cisplatin, 20 μM mdivi-1, or the combination of 20 μM cisplatin and 20 μM mdivi-1 for 20 h. S phase cells were then pulse-labeled with 10 μM BrdU for 30 min at 37° C. Cells were trypsinized, fixed in 70% ice-cold ethanol, and incubated overnight at 4° C. DNA was denatured in 2 N HCl containing 0.5% Triton X-100, and neutralized with 0.1 M Na2B4O7. Cells were then stained with FITC-labeled anti-BrdU antibody (BD Biosciences, San Jose, Calif.). To determine the number of cells in mitosis, cells were then stained with Alexa Fluor 647-conjugated phospho-Histone H3 (Ser 10) antibody (Cell signaling technology). To measure DNA content, cells were incubated in PI solution (PBS containing 50 μg/ml of PI and 40 μg/ml of RNase A) for 30 min at room temperature. Samples were analyzed on a CyAn ADP Analyzer (Beckman Coulter, Brea, Calif.). Data were analyzed using Summit software.

MDA-MB-231 cells [3] = assay: CyQUANT cell number after 2 h exposure and wash-out; conditions: 50 μM, 2 h exposure then wash-out
Experimental: FIG. 19A-E. Combination of cisplatin and mdivi-1 produces synergistic pro-apoptotic effect in multidrug resistant tumor cells. (A) MDA-MB-231 cells were treated with increasing doses of mdivi-1 for 72 h. The survival was assessed by MTS assay. […] (B) MDA-MB-231 cells were treated with increasing doses of cisplatin alone or the combination with 20 μM or 50 μM of mdivi-1 for 72 h. The survival was assessed by MTS assay. (C) MDA-MB-231 cells were exposed to cisplatin and mdivi-1 alone or combination at their IC50 or 0.5 fold of their IC50. The combination index (CI) and the normalized isobologram were generated using CompuSyn. (D) MDA-MB-231 cells were treated with DMSO, 50 μM cisplatin alone, 50 μM mdivi-1 alone, or the combination for 2 h. The compounds were then washed out and the cell number was determined every 24 h by CyQuant assay. (E) MDA-MB-231 cells were treated with agents alone, or the combination at a ratio of 1:1 for 20 h. The number of apoptotic cells was determined with antibody recognizing cleaved caspase-3 followed by flow cytometry.
To explore this effect further, MDA-MB-231 cells were treated with DMSO as a vehicle control, 50 μM of cisplatin, 50 μM of mdivi-1, or 50 μM of cisplatin plus 50 μM of mdivi-1 for 2 hours. The cells were then washed with growth media and plated in black 96-well plates. Survivals were measured by CyQUANT assay. Data represent mean±SD. n=4 wells. […]

MDA-MB-231 cells [4] = assay: Western blot of DNA damage response proteins; conditions: 4 h; mdivi-1 alone at 50 μM
Experimental: as §1
Whole cell lysate was prepared by lysing cells in cell lysis buffer (Cell signaling technology) containing complete protease inhibitor (Roche). Cell lysates were then cleared at 15,000 rpm for 15 min at 4° C. […] The protein content was quantified using a Bio-Rad Protein Assay kit (Bio-Rad Laboratories, Hercules, Calif.). […]

| Structure (SMILES) | chromosome stability during mitosis (MDA-MB-231 cells [1]) | BrdU incorporation into DNA (MDA-MB-231 cells [2]) | S phase cells (MDA-MB-231 cells [2]) [%] | effect on cell growth / survival after short exposure (MDA-MB-231 cells [3]) | phosphorylation / activation of Chk1 (MDA-MB-231 cells [4]) | G2 phase cells (MDA-MB-231 cells [2]) [%] |
| --- | --- | --- | --- | --- | --- | --- |
| COc1cc(-n2c(=S)[nH]c3ccccc3c2=O)c(Cl)cc1Cl [mdivi-1] | chromosomal instability | substantially decreased | 44.23 | reversible | induced activation of Chk1 |  |
| N.N.[Cl][Pt][Cl] [cisplatin] |  | abolished the uptake of BrdU |  | only slightly slowed down cell growth | phosphorylated | 18.97 |
